By inhibition is commonly meant the percentage by which the read-out fell short of the control. The low end stands for little suppression, the high end for strong suppression. By IC50 is commonly meant the concentration that inhibits the measured activity by half. Read a high IC50 as weaker potency in that assay.

We go through 2 molecules from US9913846B2, “Combination of a PI3 kinase inhibitor with pacitaxel for use in the treatment or prevention of a cancer of the head and neck” (NOVARTIS AG, priority 2013, dated 2018).

Series [1] has as its system UMSCC11A. The experiment in a line: Cancer cell growth inhibition, cell counting after 5 days. The class given is cell-based. The settings on record: 120 h. The procedure: (§1) Data was compared with untreated controls. […] Experiments were carried out in duplicate. The table below details the results.
Series [2] concerns UMSCC5. The description is as above. It is filed as cell-based. To be noted: UM-SCC-5, 120 h. As to the method:
as §1

Series [3] deals with UMSCC1. The series is described as above. The class given is cell-based. To be noted: Homo sapiens, 120 h. The procedure:
as §1

For series [4], the system named is UPCISCC153. Described as above. The class given is cell-based. The settings on record: 120 h. The procedure: as §1
In series [5] the test system is pAKT in FaDu xenograft (Hypopharynx squamous cell carcinoma). Kind of series: pAKT in tumor tissue of FaDu xenograft (FIG. 2). To be noted: Compound A at 30 mg daily. It is filed as in vivo.
Series [6] is described as follows: Concentration delivered to patients. The settings on record: patients treated at 100 mg daily; expected. It is filed as in vivo, human. The source says: (§2) (Red=KRAS mutant=UMSCC-74A. Yellow=PI3KCA mutant=CAL33).
Series [7] has as its system head and neck cancer cell lines. The experiment in a line: Sensitivity of head and neck cancer cell line panels to Compound A (FIG. 1). The class given is cell-based. The settings on record: majority of the cell lines of two independently tested panels.
Excerpt: as §2

As to `CC(=O)O[C@H]1C(=O)[C@@]2(C)[C@H]([C@H](OC(=O)c3ccccc3)[C@]3(O)C[C@H](OC(=O)[C@H](O)[C@@H](NC(=O)c4ccccc4)c4ccccc4)C(C)=C1C3(C)C)[C@]1(OC(C)=O)CO[C@@H]1C[C@@H]2O` [Paclitaxel, 5β,20-Epoxy1,2a,4,7β, 10β, 13a-hexahydroxytax-11-en-9-one 4, 10,-diacetate 2-benzoate 13-ester with (2R, 3S)—N-benzoyl-3-phenylisoserine, reference compound], the inhibition at 0.001 µg/mL in series [1] (paclitaxel 1 ng/ml) came to 3.13%; in series [2] (paclitaxel 1 ng/ml), 7.6%; in series [3] (paclitaxel 1 ng/ml), 4.6%; in series [4] (paclitaxel 1 ng/ml), 0%.

`Nc1cc(C(F)(F)F)c(-c2cc(N3CCOCC3)nc(N3CCOCC3)n2)cn1` [Compound A, 5-(2,6-di-morpholin-4-yl-pyrimidin-4-yl)-4-trifluoromethyl-pyridin-2-ylamine]: the “pAKT in tumor tissue” value in series [5] is listed as “inhibition of pAKT”. In addition, the “concentration delivered to patients” value in series [6] is “around 1 μM”. The molecule further yielded an IC50 in series [7] below 1 µM. Also, the inhibition at 1 µM in series [1] (Compound A 1 μM) was 21.9%; in series [2] (Compound A 1 μM), 28%; in series [3] (Compound A 1 μM), 21.2%; in series [4] (Compound A 1 μM), 15%.
